ChEMBL document CHEMBL1158836, “Cytotoxic sesquiterpenes from Aplysia dactylomela” (J Nat Prod, 2005)
Starred links: 1 amine or outer side, 2 acyl side, 3 side chain; linkers in the order of their positions; H or OH if unused. Positions of bridges follow the written chain, without caps; N, C: chain ends. Non-standard residues stand in square brackets, D forms with d. Residues, ends and D or L forms follow the SMILES beside them. Chains are numbered I, II in the order given. Actinocin(1to9) = Cc1c2oc3c(C)ccc(C(=O)[*:2])c3nc-2c(C(=O)[*:1])c(N)c1=O; NMeV = CN[C@H](C(=O)O)C(C)C; Sar = CNCC(=O)O

Tests used:
HeLa [1] = assay: Cytotoxicity against human HeLa cells in log-phase after 48 hrs by MTT assay; type: functional, cell-based
HEp-2 [2] = assay: Cytotoxicity against human Hep2 cells in log-phase after 48 hrs by MTT assay; type: functional, cell-based; settings: HEp-2, 48 h
HEp-2 [3] = assay: Cytotoxicity against human Hep2 cells in lag-phase after 48 hrs by MTT assay; type: functional, cell-based; settings: HEp-2, 48 h
Vero [4] = assay: Cytotoxicity against african green monkey Vero cells in lag-phase after 48 hrs by MTT assay; type: cell-based; settings: Chlorocebus sabaeus
HeLa [5] = assay: Cytotoxicity against human HeLa cells in lag-phase after 48 hrs by MTT assay; type: functional, cell-based
Vero [6] = assay: Cytotoxicity against african green monkey Vero cells in log-phase after 48 hrs by MTT assay; type: cell-based; settings: Chlorocebus sabaeus

SMILES | IC50 (HeLa [1]) | IC50 (HEp-2 [2]) | IC50 (HEp-2 [3]) | IC50 (Vero [4]) | IC50 (HeLa [5]) | IC50 (Vero [6])
CC(=O)O[C@@H]1C[C@@H](Br)C(C)(C)O[C@]1(C)[C@H]1CC[C@](C)(Cl)[C@@H](Br)C1 | > 42 µM | > 42 µM | > 42 µM | 31.9 µM | > 42 µM | 33.6 µM
C=C1C[C@H](O)[C@H](Br)C(C)(C)[C@]12CC=C(C)CC2 [DESCHLOROELATOL] | > 67 µM | > 67 µM | > 67 µM | > 67 µM | > 67 µM | > 67 µM
CC1(C)O[C@](C)([C@H]2CC[C@](C)(Cl)[C@@H](Br)C2)[C@H](O)C[C@H]1Br [CAESPITOL] | 30.6 µM | > 46 µM | > 46 µM | 25.5 µM | 26.9 µM | 25.8 µM
C=C1C[C@H](O)[C@H](Br)C(C)(C)[C@@]12CCC(C)=C(Cl)C2 [ELATOL] | 1.3 µM | 2 µM | 2.4 µM | 2.3 µM | 4.1 µM | 25 µM
C=C1C[C@H](OC(C)=O)[C@H](Br)C(C)(C)[C@]12CC=C(C)CC2 [ACETYLDESCHLOROELATOL] | > 58 µM | > 58 µM | > 58 µM | > 58 µM | > 58 µM | > 58 µM
Cc1c2oc3c(C)ccc(C(=O)N[C@@H]4C(=O)N[C@H](C(C)C)C(=O)N5CCC[C@H]5C(=O)N(C)CC(=O)N(C)[C@@H](C(C)C)C(=O)O[C@@H]4C)c3nc-2c(C(=O)N[C@@H]2C(=O)N[C@H](C(C)C)C(=O)N3CCC[C@H]3C(=O)N(C)CC(=O)N(C)[C@@H](C(C)C)C(=O)O[C@@H]2C)c(N)c1=O [DACTINOMYCIN] (I: T[dV]P[Sar][NMeV] / II: T[dV]P[Sar][NMeV]; ester I:1-I:C, II:1-II:C; linker I:N-II:N via Actinocin(1to9)) | 0.001 µM | 0.006 µM | 0.191 µM | 0.071 µM | 0.011 µM | 0.001 µM
C=C1C[C@H](OC(C)=O)[C@H](Br)C(C)(C)[C@@]12CCC(C)=C(Cl)C2 [ACETYLELATOL] | 13.7 µM | 22.4 µM | 28 µM | > 53 µM | 50.3 µM | 44.6 µM
